Assay results published in patent publication US12649735B2 (HAIHE BIOPHARMA CO., LTD., priority 2019, dated 2026).

What was measured:
[1] = target: T1, bromodomain protein BRD4 BD1 (Homo sapiens, UniProt O60885); test: HTRF in vitro assay, inhibitory activity against BRD4 BD1; type: binding; settings: BRD4(1) 30 nM in final system
T1 construct: The proteins BRD4 BD1/BD2 used in the experiment were purchased from Active Motif Company (Cat. No. 31380/31446); purchased Active Motif 31380
Procedure: In this example, the half inhibitory activity (IC50) of the compounds of the present invention against the bromodomain protein BRD4 BD1 was determined.
(§1) The inhibitory activity of the compound against BRD4 BD1 was determined by using Homogeneous Time-Resolved Fluorescence (HTRF).
(§2) The proteins BRD4 BD1/BD2 used in the experiment were purchased from Active Motif Company (Cat. No. 31380/31446); Streptavidin XL-665 (#610SAXLA) and EPIgeneous Binding Domain Kit A (#62BDAPEG) were purchased from Cisbio Bioassays Company, [Lys(5,8,12,16)Ac]H4(1-21)-biotin (#64989), and [Lys(5,8,12,16)Ac]H4(1-25) were products of AnaSpec company; OTX015 and ABBV-075 were purchased from SelleckChem. 384 Well ProxiPlate (#6008280) was purchased from PerkinElmer. The multifunctional microplate reader used for the experimental was a product of PerkinElmer, model: Envision 2104. The experimental water was Millipore-Q pure water.
(§3) 10 mM of stock solution of compound in DMSO was diluted to 1 mM with DMSO and stored, and then diluted 10 times with Binding Domain dilution buffer (purchased from Cisbio Bioassays) for use (the concentration of DMSO in the final system was […]), 1:5 gradient dilution, a total of 5 concentrations.
(§4) 4. Test Method: 1 Batch, 2 Duplicate Wells
(§5) • 1) 5 μL of test compound was transferred to 45 μL of Binding Domain dilution buffer. • 2) 2 μL of 10× compound (4 μL Binding Domain dilution buffer: positive control; 6 μL enzyme buffer (purchased from Cisbio Bioassays): negative control) was transferred to the reaction plate. • 3) 4 μL of 5×BRD4(1) or BRD4(2) (30 nM in final system) was added to the reaction plate. • 4) 4 μL of 5×[Lys(5,8,12,16)Ac]H4(1-21)-biotin was added to the reaction plate, and the plate was covered with a film, and incubated at 37° C. for 30 min. • 5) A detection mixture of SA-XL665 (2×) and anti-H3K9me0-Eu(K) (2×) was prepared in detection buffer (purchased from Cisbio Bioassays). • 6) 10 μL of detection mixture (2×) was added to each well, and incubated for 3 h at room temperature, and the mp value was read using a multi-plate reader Envision. The parameters were set as follows.

[2] = target: T2, bromodomain protein BRD4 BD2 (Homo sapiens, UniProt O60885); test: HTRF in vitro assay, inhibitory activity against BRD4 BD2; type: binding; settings: BRD4(2) 30 nM in final system
T2 construct: The proteins BRD4 BD1/BD2 used in the experiment were purchased from Active Motif Company (Cat. No. 31380/31446); purchased Active Motif 31446
Procedure: as §1, §2, §3, §4, §5

| Molecule | IC50 [1] [nM] | IC50 [2] [nM] |
| --- | --- | --- |
| CCNC(=O)c1cc2c(C(C)c3ccccc3)cn(C)c(=O)c2[nH]1 (stereo not shown) [Compound A5, N-ethyl-6-methyl-7-oxo-4-(1-phenethyl)-6,7-dihydro-1H-pyrrolo[2,3-c]pyridin-2-carboxamide] | 100 to 1000 | ≤ 10 |
| CCNC(=O)c1cc2c(/C(=C/c3ccccc3)c3ccccc3)cn(C)c(=O)c2[nH]1 [Compound A24, (E)-4-(1,2-diphenylvinyl)-N-ethyl-6-methyl-7-oxo-6,7-dihydro-1H-pyrrolo[2,3-c]pyridin-2-carboxamide] | 100 to 1000 | 10 to 100 |
| Cn1cc(Cc2ccccc2)c2c[nH]cc2c1=O [Compound A1] | 100 to 1000 | 10 to 100 |
| 4-(methoxy(phenyl)methyl)-6-methyl-2-(1-(oxetan-3-yl)-1H-pyrazol-4-yl)-1-tolyl-1,6-dihydro-7H-pyrrolo[2,3-c]pyridin-7-one [Compound A70] | 100 to 1000 | 10 to 100 |
| CCNC(=O)c1cc2c(C(O)c3c(C)cccc3C)cn(C)c(=O)c2[nH]1 (stereo not shown) [Compound A23, (4-(2,6-dimethylphenyl)(hydroxy)methyl)-N-ethyl-6-methyl-7-oxo-6,7-dihydro-1H-pyrrolo[2,3-c]pyridin-2-carboxamide] | 100 to 1000 | 10 to 100 |
| 6-methyl-7-carbonyl-4-(1-phenylethyl)-N-(tetrahydro-2H-pyran-4-yl)-6,7-dihydro-1H-pyrrolo[2,3-c]pyridin-2-carboxamide [Compound A6] | 100 to 1000 | ≤ 10 |
| CCNC(=O)c1cc2c(C(C)c3ccc4ccccc4c3)cn(C)c(=O)c2[nH]1 (stereo not shown) [Compound A22, N-ethyl-6-methyl-4-(1-(naphthalen-2-yl)ethyl)-7-oxo-6,7-dihydro-1H-pyrrolo[2,3-c]pyridin-2-carboxamide] | 100 to 1000 | 10 to 100 |
| Cn1cc(C(CCO)c2ccccn2)c2cc(C(=O)NC3CC3)[nH]c2c1=O (stereo not shown) [Compound A9, N-cyclopropyl-4-(3-hydroxy-1-(pyridin-2-yl)propyl)-6-methyl-7-oxo-6,7-dihydro-1H-pyrrolo[2,3-c]pyridin-2-carboxamide] | 100 to 1000 | 10 to 100 |
| CC(c1ccccc1)c1cn(C)c(=O)c2[nH]c(C(=O)NC3CC3)cc12 (stereo not shown) [Compound A8, N-cyclopropyl-6-methyl-7-oxo-4-(1-phenethyl)-6,7-dihydro-1H-pyrrolo[2,3-c]pyridin-2-carboxamide] | 100 to 1000 | ≤ 10 |
| CC(c1ccc2ccccc2c1)c1cn(C)c(=O)c2[nH]c(C(=O)Nc3cnn(C)c3)cc12 (stereo not shown) [Compound A13] | 100 to 1000 | ≤ 10 |
| Cc1nocc1-c1cc2c(C(C)c3ccccc3)cn(C)c(=O)c2[nH]1 (stereo not shown) [Compound A21] | 100 to 1000 | 10 to 100 |
| CCNC(=O)c1cc2c(C(C)c3cccnc3)cn(C)c(=O)c2[nH]1 (stereo not shown) [Compound A11, N-ethyl-6-methyl-7-oxo-4-(1-(pyridin-3-yl)ethyl)-6,7-dihydro-1H-pyrrolo[2,3-c]pyridin-2-carboxamide] | 100 to 1000 | ≤ 10 |
| CC(c1ccccc1)c1cn(C)c(=O)c2[nH]c(-c3cnn(C)c3)cc12 (stereo not shown) [Compound A18, 6-methyl-2-(1-methyl-1H-pyrazol-4-yl)-4-(1-phenethyl)-1,6-dihydro-7H-pyrrolo[2,3-c]pyridin-7-one] | 100 to 1000 | ≤ 10 |
| CCNC(=O)n1cc2c(Cc3ccccc3)cn(C)c(=O)c2c1 [Compound A3, 7-benzyl-N-ethyl-5-methyl-4-oxo-4,5-dihydro-2H-pyrrolo[3,4-c]pyridin-2-carboxamide] | 100 to 1000 | 10 to 100 |
| 6-methyl-7-carbonyl-4-(1-phenylethyl)-N-(1H-pyrazol-4-yl)-6,7-dihydro-1H-pyrrolo[2,3]pyridin-2-carboxamide [Compound A7] | 100 to 1000 | ≤ 10 |

Second part, the molecule after the results:

| IC50 [1] [nM] | IC50 [2] [nM] | Molecule |
| --- | --- | --- |
| 100 to 1000 | ≤ 10 | CC(c1ccccc1)c1cn(C)c(=O)c2c(NC(=O)OC(C)(C)C)c(-c3cnn(C)c3)oc12 (stereo not shown) [Compound A61, tert-butyl (5-methyl-2-(1-methyl-1H-pyrazol-4-yl)-4-oxo-7-(1-phenethyl)-4,5-dihydrofuro[3,2-c]pyridin-3-yl carbamate] |
| 100 to 1000 | 10 to 100 | CC(c1ccc(O)cc1)c1cn(C)c(=O)c2[nH]c(-c3cnn(C4COC4)c3)cc12 (stereo not shown) [Compound A72, 4-(1-(4-hydroxyphenyl)ethyl)-6-methyl-2-(1-(oxetan-3-yl)-1H-pyrazol-4-yl)-1,6-dihydro-7H-pyrrolo[2,3-c]pyridin-7-one] |
| 100 to 1000 | ≤ 10 | COc1ccc(C(C)c2cn(C)c(=O)c3[nH]c(-c4cnn(C5COC5)c4)cc23)cc1 (stereo not shown) [Compound A73, 4-(1-(4-methoxyphenyl)ethyl)-6-methyl-2-(1-(oxetan-3-yl)-1H-pyrazol-4-yl)-1,6-dihydro-7H-pyrrolo[2,3-c]pyridin-7-one] |
| 100 to 1000 | 10 to 100 | CCNC(=O)c1cc2c(C(C)c3ccc4ccccc4c3)cn(C)c(=O)c2[nH]1 (stereo not shown) [Compound A25] |
| 10 to 100 | 10 to 100 | Cc1ccc(-n2c(-c3cn(C)c(=O)c4[nH]c(-c5cnn(C)c5)cc34)nc3ncccc32)cc1 [Compound A50] |
| 100 to 1000 | 10 to 100 | CCNC(=O)c1cc2c(-c3cn(C)nc3C(C)c3ccccc3)cn(C)c(=O)c2[nH]1 (stereo not shown) [Compound A33, N-ethyl-6-methyl-4-(1-methyl-3-(1-phenylethyl)-1H-pyrazol-4-yl)-7-oxo-6,7-dihydro-1H-pyrrolo[2,3c]pyridin-2-carboxamide] |
| 100 to 1000 | 10 to 100 | Cc1ccc(C2c3ccccc3C(=O)N2c2cn(C)c(=O)c3[nH]c(C(=O)Nc4cn[nH]c4)cc23)cc1 (stereo not shown) [Compound A55] |
| 100 to 1000 | 10 to 100 | Cn1cc(C(c2ccccc2)c2ccccc2)c2cc(-c3cnn(C4COC4)c3)[nH]c2c1=O [Compound A71] |
| 10 to 100 | ≤ 10 | CCNC(=O)c1cc2c(-c3cc(CO)c4ccccc4c3C3CC3)cn(C)c(=O)c2[nH]1 [Compound A32, 4-(1-cyclopropyl-4-(hydroxymethyl)naphthalen-2-yl)-N-ethyl-6-methyl-7-oxo-6,7-dihydro-1H-pyrrolo[2,3-c]pyridin-2-carboxamide] |
| 100 to 1000 | 10 to 100 | CC(c1ccccc1)c1cn(C)c(=O)c2cc(-c3cn(C)nc3N)sc12 (stereo not shown) [Compound A42, 2-(3-amino-1-methyl-1H-pyrazol-4-yl)-5-methyl-7-(1-phenylethyl)thieno[3,2-c]pyridin-4(5H)-one] |
| 100 to 1000 | 10 to 100 | Cn1cc(-c2cc3c(C(O)c4ccccc4)cn(C)c(=O)c3[nH]2)cn1 (stereo not shown) [Compound A44] |
| 100 to 1000 | 10 to 100 | CCNC(=O)c1cc2c(C(c3ccccc3)c3ccccc3O)cn(C)c(=O)c2[nH]1 (stereo not shown) [Compound A28] |
| 10 to 100 | ≤ 10 | CCNC(=O)c1cc2c(-c3nc4ncccc4n3-c3c(C)cccc3C)cn(C)c(=O)c2[nH]1 [Compound A31, 4-(1-(2,6-dimethylphenyl)-1H-imidazo[4,5-b]pyridin-2-yl)-N-ethyl-6-methyl-7-oxo-6,7-dihydro-1H-pyrrolo[2,3-c]pyridin-2-carboxamide] |
| 100 to 1000 | 10 to 100 | Cc1ccc(C(C)(C)c2cn(C)c(=O)c3[nH]c(-c4cnn(C5COC5)c4)cc23)cc1 [Compound A69, 6-methyl-2-(1-(oxetan-3-yl)-1H-pyrazol-4-yl)-4-(2-(p-tolyl)propan-2-yl)-1,6-dihydro-7H-pyrrolo[2,3-c]pyridin-7-one] |
| 100 to 1000 | 10 to 100 | Cn1cc(C(CO)c2ccccc2)c2cc(-c3cnn(C4COC4)c3)[nH]c2c1=O (stereo not shown) [Compound A67, 4-(2-hydroxy-1-phenethyl)-6-methyl-2-(1-(oxetan-3-yl)-1H-pyrazol-4-yl)-1,6-dihydro-7H-pyrrolo[2,3-c]pyridin-7-one] |
| 100 to 1000 | 10 to 100 | Cc1ccc(C2CCC(=O)N2c2cn(C)c(=O)c3[nH]c(C(=O)Nc4cn[nH]c4)cc23)cc1 (stereo not shown) [Compound A54] |
| 100 to 1000 | 10 to 100 | CCNC(=O)c1cc2c(-c3c(C(=O)NCC)cnn3C(C)c3ccccc3)cn(C)c(=O)c2[nH]1 (stereo not shown) [Compound A35, N-ethyl-4-(4-(ethylcarbamoyl)-1-(1-phenylethyl)-1H-pyrazol-5-yl)-6-methyl-7-oxo-6,7-dihydro-1H-pyrrolo[2,3-c]pyridin-2-carboxamide] |
